From article doi:10.1101/2025.01.28.635346v1 (bioRxiv, 2025)
Bridge positions count the residues as written; N and C are the ends. Side chains are listed from the residue outwards. Peptide text beside a SMILES is read from it. * marks the point of attachment. Butanoyl(4-(4-I-phenyl)) = O=C(CCCc1ccc(I)cc1)*; PEG2 = NCCOCCOCCC(=O)O

Experiments:
KvLQT1/minK = KvLQT1/minK (Homo sapiens, UniProt P15382+P51787); test: Safetyscan47 Ion Channel, Blocker; type: cell-based; conditions: for Emax: read-out: Max Response
CCKAR = molecular target: T1, CCKAR (Homo sapiens, UniProt P32238); test: Safetyscan47 GPCR Calcium Flux, Agonist; type: cell-based; conditions: for Emax: read-out: Max Response
T1 sequence (P32238 1-428): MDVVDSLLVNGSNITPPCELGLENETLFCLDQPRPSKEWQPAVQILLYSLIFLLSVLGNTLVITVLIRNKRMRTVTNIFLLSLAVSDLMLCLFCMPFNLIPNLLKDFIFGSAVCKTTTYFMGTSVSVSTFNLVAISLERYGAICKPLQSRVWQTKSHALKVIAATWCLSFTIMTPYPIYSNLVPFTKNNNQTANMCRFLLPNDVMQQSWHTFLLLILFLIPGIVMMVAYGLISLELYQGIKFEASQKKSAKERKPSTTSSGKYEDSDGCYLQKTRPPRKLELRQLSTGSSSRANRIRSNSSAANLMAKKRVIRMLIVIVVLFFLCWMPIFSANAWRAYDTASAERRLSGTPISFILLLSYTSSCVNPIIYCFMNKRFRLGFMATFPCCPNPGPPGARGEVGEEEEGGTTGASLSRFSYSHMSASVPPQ

HTR3A = molecular target: T2, HTR3A (Homo sapiens, UniProt P46098); test: Safetyscan47 Ion Channel, Opener; type: cell-based; conditions: for Emax: read-out: Max Response
T2 sequence (P46098 24-478): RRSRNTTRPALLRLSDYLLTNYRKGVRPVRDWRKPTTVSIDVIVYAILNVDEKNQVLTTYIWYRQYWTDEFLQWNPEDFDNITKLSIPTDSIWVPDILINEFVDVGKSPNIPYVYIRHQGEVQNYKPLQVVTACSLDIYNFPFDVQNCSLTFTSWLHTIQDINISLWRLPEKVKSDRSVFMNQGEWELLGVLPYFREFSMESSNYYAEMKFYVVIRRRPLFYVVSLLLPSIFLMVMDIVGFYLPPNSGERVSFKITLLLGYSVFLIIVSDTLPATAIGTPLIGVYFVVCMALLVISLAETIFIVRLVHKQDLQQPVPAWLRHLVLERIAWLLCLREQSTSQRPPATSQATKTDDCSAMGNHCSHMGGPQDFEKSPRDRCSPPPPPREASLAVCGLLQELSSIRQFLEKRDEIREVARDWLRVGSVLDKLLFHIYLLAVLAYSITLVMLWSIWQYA

CHRM1 = molecular target: T3, CHRM1 (Homo sapiens, UniProt P11229); test: Safetyscan47 GPCR Calcium Flux, Agonist; type: cell-based; conditions: for Emax: read-out: Max Response
T3 sequence (P11229 1-460): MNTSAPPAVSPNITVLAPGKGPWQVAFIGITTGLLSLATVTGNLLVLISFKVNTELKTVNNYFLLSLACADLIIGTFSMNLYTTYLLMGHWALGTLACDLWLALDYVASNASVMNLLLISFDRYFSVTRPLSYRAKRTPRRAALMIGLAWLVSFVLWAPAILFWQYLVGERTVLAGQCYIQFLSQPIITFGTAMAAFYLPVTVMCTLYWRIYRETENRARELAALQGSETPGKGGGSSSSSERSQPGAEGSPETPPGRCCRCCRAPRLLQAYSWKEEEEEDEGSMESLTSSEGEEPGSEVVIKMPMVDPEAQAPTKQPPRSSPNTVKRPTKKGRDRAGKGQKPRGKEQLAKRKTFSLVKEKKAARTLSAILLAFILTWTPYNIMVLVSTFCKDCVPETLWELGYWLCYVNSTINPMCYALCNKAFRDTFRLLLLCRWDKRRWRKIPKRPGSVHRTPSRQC

CAV1.2 = CAV1.2 (Homo sapiens, UniProt Q13936); test: Safetyscan47 Ion Channel, Blocker; type: cell-based
CAV1.2, sequence (Q13936 whole entry): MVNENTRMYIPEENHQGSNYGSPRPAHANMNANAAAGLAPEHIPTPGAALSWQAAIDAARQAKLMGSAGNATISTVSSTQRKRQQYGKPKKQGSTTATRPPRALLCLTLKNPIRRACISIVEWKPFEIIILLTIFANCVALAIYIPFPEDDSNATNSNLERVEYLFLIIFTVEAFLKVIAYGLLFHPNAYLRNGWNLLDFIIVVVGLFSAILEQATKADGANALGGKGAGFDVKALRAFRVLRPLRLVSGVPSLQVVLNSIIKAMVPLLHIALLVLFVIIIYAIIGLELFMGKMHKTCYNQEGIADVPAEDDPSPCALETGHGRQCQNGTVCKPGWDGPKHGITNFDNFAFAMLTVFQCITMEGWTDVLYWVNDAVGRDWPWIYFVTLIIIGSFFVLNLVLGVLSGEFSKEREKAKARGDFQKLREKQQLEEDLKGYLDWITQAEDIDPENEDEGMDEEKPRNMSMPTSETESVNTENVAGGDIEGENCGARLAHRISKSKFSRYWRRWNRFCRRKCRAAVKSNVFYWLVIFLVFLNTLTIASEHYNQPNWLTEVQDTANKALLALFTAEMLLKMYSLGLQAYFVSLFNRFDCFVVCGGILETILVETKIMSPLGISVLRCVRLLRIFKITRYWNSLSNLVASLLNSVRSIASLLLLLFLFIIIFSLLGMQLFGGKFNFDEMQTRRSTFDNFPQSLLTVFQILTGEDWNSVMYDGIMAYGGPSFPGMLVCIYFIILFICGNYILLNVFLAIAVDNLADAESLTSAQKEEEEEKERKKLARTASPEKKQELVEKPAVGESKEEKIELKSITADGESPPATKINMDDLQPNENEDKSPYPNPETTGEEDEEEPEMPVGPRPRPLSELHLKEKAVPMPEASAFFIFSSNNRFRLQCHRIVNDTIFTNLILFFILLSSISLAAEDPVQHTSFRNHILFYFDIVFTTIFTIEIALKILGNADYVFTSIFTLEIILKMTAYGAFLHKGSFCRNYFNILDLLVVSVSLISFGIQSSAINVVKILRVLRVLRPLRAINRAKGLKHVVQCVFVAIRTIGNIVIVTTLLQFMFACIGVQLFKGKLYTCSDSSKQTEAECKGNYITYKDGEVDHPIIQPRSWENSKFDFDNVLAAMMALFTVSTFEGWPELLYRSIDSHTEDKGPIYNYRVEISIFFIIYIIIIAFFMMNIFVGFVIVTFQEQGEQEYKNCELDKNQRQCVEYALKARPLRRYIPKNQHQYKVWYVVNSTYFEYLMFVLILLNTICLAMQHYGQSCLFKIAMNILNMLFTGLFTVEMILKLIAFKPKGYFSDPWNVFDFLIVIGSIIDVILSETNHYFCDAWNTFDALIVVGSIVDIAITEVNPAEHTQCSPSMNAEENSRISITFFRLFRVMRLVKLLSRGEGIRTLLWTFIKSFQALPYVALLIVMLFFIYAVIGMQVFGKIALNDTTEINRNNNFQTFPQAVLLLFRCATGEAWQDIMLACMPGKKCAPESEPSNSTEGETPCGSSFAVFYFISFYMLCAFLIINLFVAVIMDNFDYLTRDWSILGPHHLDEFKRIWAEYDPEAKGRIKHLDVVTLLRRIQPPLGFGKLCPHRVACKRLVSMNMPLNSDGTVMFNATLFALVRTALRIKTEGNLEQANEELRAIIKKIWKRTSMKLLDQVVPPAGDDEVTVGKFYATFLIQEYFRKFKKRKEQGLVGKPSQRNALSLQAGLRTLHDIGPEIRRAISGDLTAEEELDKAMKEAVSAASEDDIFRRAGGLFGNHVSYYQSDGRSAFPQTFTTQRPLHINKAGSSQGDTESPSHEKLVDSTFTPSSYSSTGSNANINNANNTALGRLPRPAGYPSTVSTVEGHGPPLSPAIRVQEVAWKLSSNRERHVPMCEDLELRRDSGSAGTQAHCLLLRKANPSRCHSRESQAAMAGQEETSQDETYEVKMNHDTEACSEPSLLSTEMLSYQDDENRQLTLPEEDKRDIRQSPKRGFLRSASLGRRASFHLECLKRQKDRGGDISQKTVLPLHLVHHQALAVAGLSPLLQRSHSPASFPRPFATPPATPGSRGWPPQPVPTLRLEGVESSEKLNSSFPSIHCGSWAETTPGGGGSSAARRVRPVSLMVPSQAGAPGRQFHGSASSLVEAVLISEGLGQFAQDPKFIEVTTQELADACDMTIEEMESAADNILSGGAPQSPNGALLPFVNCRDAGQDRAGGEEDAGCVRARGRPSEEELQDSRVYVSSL
CAV1.2, sequence (Q08289 whole entry partner): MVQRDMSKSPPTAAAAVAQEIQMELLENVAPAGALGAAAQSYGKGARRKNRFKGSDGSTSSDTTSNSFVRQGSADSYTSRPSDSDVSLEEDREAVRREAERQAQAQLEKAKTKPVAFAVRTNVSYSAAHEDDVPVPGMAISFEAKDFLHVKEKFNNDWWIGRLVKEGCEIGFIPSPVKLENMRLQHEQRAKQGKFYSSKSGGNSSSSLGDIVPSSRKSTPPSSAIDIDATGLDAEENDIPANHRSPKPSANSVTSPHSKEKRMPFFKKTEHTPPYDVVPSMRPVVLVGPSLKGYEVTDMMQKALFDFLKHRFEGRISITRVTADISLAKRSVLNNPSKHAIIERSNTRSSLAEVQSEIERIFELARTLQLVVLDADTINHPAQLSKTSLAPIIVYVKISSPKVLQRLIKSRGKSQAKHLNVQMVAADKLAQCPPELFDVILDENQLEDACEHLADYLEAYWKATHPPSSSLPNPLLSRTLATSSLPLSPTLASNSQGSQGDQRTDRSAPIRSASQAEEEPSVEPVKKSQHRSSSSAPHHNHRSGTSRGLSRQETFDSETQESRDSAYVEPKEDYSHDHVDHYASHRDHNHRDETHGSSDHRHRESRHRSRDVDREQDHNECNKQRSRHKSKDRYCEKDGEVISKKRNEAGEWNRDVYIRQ
CAV1.2, sequence (P54289 25-1103 partner): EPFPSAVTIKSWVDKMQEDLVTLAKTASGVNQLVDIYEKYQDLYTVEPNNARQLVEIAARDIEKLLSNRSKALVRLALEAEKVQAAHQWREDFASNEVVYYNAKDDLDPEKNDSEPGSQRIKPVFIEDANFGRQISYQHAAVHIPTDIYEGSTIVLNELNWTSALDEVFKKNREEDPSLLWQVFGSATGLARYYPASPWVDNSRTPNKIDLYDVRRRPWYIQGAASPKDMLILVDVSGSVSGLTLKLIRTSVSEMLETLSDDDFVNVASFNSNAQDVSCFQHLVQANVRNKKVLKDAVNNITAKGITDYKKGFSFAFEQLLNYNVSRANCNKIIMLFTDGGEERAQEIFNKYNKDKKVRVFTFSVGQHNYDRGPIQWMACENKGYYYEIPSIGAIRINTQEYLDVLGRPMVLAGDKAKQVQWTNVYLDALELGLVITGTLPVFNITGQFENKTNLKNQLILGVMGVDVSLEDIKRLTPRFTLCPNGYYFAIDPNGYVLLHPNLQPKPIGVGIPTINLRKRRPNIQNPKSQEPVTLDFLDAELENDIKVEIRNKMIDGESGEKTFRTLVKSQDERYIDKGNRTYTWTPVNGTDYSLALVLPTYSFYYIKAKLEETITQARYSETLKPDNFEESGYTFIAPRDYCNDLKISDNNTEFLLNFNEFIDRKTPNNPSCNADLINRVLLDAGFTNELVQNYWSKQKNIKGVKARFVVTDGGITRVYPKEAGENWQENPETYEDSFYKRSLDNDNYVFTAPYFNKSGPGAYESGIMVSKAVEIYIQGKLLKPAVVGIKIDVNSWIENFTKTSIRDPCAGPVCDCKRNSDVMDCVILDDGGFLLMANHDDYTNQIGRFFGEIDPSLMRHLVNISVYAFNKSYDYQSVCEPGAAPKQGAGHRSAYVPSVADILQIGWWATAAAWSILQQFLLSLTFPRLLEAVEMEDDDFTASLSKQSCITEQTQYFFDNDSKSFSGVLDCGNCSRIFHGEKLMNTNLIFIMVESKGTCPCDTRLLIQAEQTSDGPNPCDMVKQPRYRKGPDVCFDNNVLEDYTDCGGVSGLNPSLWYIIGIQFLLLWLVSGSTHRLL

VEGFR2 = VEGFR2 (Homo sapiens, UniProt P35968); test: Safetyscan47 Kinases Binding, Inhibitor; conditions: for Emax: read-out: Max Response
CNR2 = CNR2 (Homo sapiens, UniProt P34972); test: Safetyscan47 GPCR cAMP, Antagonist; type: cell-based; conditions: for Emax: read-out: Max Response
CNR2, sequence (P34972 whole entry): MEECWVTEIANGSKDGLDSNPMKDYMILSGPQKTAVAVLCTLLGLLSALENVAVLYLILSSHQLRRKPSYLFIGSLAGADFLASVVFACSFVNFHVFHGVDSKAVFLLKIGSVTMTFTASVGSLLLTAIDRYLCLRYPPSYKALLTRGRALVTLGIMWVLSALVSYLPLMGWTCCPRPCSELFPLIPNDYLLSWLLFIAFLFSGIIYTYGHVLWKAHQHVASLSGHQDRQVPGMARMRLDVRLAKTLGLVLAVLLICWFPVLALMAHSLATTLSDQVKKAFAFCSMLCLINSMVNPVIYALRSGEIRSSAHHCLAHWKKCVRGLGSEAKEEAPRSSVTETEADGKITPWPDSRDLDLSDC

HTR2B = HTR2B (Homo sapiens, UniProt P41595); test: Safetyscan47 GPCR Calcium Flux, Antagonist; type: cell-based; conditions: for Emax: read-out: Max Response
HTR2B, sequence (P41595 whole entry): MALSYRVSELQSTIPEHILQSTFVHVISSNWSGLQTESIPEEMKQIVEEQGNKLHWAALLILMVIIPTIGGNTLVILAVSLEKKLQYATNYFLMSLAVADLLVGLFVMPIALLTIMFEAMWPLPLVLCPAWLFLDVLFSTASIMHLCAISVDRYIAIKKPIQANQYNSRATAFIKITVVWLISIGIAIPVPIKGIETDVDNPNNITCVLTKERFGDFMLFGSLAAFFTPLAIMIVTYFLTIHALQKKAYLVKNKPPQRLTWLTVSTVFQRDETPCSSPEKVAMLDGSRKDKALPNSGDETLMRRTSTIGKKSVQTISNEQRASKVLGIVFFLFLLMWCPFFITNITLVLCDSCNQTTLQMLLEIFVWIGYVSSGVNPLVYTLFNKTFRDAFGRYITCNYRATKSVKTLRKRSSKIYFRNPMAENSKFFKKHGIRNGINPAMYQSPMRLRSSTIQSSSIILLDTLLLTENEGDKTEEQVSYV

AR = molecular target: T4, AR (Homo sapiens, UniProt P10275); test: Safetyscan47 NHR Nuclear Translocation, Agonist; type: cell-based; conditions: for Emax: read-out: Max Response
T4 sequence (P10275 1-920): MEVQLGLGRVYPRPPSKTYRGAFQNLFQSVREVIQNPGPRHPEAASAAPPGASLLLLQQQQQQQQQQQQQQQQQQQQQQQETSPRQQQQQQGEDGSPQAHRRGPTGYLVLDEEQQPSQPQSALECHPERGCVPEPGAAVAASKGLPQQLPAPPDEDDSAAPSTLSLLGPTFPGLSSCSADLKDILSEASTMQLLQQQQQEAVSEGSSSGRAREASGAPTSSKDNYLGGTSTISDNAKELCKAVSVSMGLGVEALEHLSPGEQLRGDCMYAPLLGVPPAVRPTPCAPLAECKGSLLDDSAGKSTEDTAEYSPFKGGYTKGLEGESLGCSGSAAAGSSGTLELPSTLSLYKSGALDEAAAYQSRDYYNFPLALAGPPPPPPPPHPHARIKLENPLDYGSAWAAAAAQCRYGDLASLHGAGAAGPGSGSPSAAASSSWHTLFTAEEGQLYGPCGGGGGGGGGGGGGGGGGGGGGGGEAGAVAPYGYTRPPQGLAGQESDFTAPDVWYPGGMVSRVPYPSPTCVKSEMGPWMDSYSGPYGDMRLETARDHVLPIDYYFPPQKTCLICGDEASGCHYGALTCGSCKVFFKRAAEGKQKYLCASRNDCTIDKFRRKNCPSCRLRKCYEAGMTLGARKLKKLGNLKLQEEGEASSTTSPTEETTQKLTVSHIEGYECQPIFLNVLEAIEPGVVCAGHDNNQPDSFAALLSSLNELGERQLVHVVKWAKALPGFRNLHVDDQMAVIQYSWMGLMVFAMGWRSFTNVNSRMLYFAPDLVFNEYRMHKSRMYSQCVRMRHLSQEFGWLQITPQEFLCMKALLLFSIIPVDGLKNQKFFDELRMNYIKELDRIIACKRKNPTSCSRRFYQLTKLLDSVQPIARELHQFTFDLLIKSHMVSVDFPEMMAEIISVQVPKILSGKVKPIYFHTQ

CC[C@H](C)[C@H](NC(=O)[C@H](CC(C)C)NC(=O)[C@H](CC(=O)O)NC(=O)CNC(=O)[C@H](CCCNC(=N)N)NC(=O)[C@@H](NC(=O)[C@H](Cc1ccccc1)NC(=O)[C@H](Cc1ccc(O)cc1)NC(=O)[C@@H]1CCC(=O)NCC(=O)NCC(=O)N[C@@H](CCCNC(=N)N)C(=O)NCC(=O)N[C@@H](Cc2c[nH]cn2)C(=O)N[C@@H](C(C)C)C(=O)N2CCC[C@H]2C(=O)N1)C(C)C)C(=O)N[C@@H](CO)C(=O)N[C@@H](Cc1ccccc1)C(=O)N[C@@H](Cc1ccc(O)cc1)C(=O)N[C@@H](CCCCN)C(=O)O [lassotide 36] (GGRGHVPEYFVRGDLISFYK-OH; lactam N-8)
IC50 (KvLQT1/minK): > 45 µM
Emax (KvLQT1/minK): 1.8%
EC50 (CCKAR): > 45 µM
Emax (CCKAR): 4.58%
EC50 (HTR3A): > 45 µM
Emax (HTR3A): 0%
EC50 (CHRM1): > 45 µM
Emax (CHRM1): 0.34%
Emax (CAV1.2): 0%
IC50 (CAV1.2): > 45 µM
IC50 (VEGFR2): > 45 µM
Emax (VEGFR2): 6.3%
IC50 (CNR2): > 45 µM
Emax (CNR2): 1.15%
IC50 (HTR2B): > 45 µM
Emax (HTR2B): 11.8%
EC50 (AR): > 45 µM
Emax (AR): 0%

CC[C@H](C)[C@H](NC(=O)[C@H](CC(C)C)NC(=O)[C@H](CC(=O)O)NC(=O)CNC(=O)[C@H](CCCNC(=N)N)NC(=O)[C@@H](NC(=O)[C@H](Cc1ccccc1)NC(=O)[C@H](Cc1ccc(O)cc1)NC(=O)[C@@H]1CCC(=O)NCC(=O)NCC(=O)N[C@@H](CCCNC(=N)N)C(=O)NCC(=O)N[C@@H](Cc2c[nH]cn2)C(=O)N[C@@H](C(C)C)C(=O)N2CCC[C@H]2C(=O)N1)C(C)C)C(=O)N[C@@H](CO)C(=O)N[C@@H](Cc1ccccc1)C(=O)N[C@@H](Cc1ccc(O)cc1)C(=O)N[C@@H](CCCCNC(=O)CCOCCOCCNC(=O)CCCc1ccc(I)cc1)C(=O)O [lassotide 47] (GGRGHVPEYFVRGDLISFYK([PEG2-Butanoyl(4-(4-I-phenyl))])-OH; lactam N-8)
IC50 (KvLQT1/minK): > 45 µM
Emax (KvLQT1/minK): 24.8%
EC50 (CCKAR): > 45 µM
Emax (CCKAR): 0%
EC50 (HTR3A): > 45 µM
Emax (HTR3A): 0.79%
EC50 (CHRM1): > 45 µM
Emax (CHRM1): 1.46%
Emax (CAV1.2): 0%
IC50 (CAV1.2): > 45 µM
IC50 (VEGFR2): > 45 µM
Emax (VEGFR2): 2.92%
IC50 (CNR2): > 45 µM
Emax (CNR2): 2.1%
IC50 (HTR2B): > 45 µM
Emax (HTR2B): 13.4%
EC50 (AR): > 45 µM
Emax (AR): 0%
